Data published in patent US12516043B2, “Stiripentol derivative and use thereof” (National University Corporation Okayama University, priority 2020, dated 2026).

Legend:
[1] = target: human LDH5 (tetramer of LDHA) (Homo sapiens, UniProt P00338); assay: Lactate dehydrogenase inhibitory action, enzymatic reaction plus chromogenic reaction (LDH5); assay type: biochemical; settings: FIG. 1A
Procedure: (§1) Evaluation of Lactate Dehydrogenase Inhibitory Action (Compounds Nos. 1 to 10, FIGS. 1 to 5):
(§2) Lactate dehydrogenase catalyzes production of lactic acid and NAD from pyruvic acid and NADH. […] In order to evaluate the enzymatic activity of lactate dehydrogenase, experiments were carried out using an evaluation system (Patent Literature 1, Non-Patent Literature 9) consisting of an enzymatic reaction (step 1) and a chromogenic reaction (step 2). In the enzymatic reaction of step 1, sodium pyruvate (100 μM), NADH (100 μM) and lactate dehydrogenase (human LDH1 or LDH5) were added, further an inhibitor (Compounds Nos. 1 to 10) different in concentration was added. The mixture was subjected to a reaction carried out in the presence of a 100 mM sodium phosphate buffer (pH 7.3, 37° C.) for 60 minutes (200 μL/well). In this stage, absorbance of the background at 492 nm was measured by a plate reader (absorbance before chromogenic reaction). […] INT changed into INT formazan by the action of diaphorase in the presence of NADH, and absorbance of INT formazan at 492 nm was measured by a plate reader (absorbance after chromogenic reaction). […] Then, the absorbance before chromogenic reaction was subtracted from the absorbance after chromogenic reaction. The value obtained by the above calculation was regarded as an “absorbance change value (ΔA)”. […]

[2] = target: human LDH1 (tetramer of LDHB) (Homo sapiens, UniProt P07195); assay: Lactate dehydrogenase inhibitory action, enzymatic reaction plus chromogenic reaction (LDH1); assay type: biochemical; settings: FIG. 1B, each n=3
Sequence of human LDH1 (tetramer of LDHB) (P07195 whole entry): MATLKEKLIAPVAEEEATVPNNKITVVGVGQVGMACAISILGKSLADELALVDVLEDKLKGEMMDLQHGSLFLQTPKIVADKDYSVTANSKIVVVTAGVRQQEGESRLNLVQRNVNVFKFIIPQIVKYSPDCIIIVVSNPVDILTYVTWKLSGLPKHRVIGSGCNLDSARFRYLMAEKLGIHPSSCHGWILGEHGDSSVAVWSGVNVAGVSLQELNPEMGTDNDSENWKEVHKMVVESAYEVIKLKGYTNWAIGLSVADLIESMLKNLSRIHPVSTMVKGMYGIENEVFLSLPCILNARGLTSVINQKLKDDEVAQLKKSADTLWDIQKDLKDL
Procedure: as §1, §2

[3] = Pharmacokinetic evaluation by oral administration to a mouse (HPLC/MS of blood plasma); assay type: in vivo, ICR mice; settings: 50 mg/kg oral, blood plasma thirty minutes later; for in vivo metabolic stability: HPLC (MS for No. 1)
Procedure: Pharmacokinetic evaluation (compounds Nos. 1, 2, 4 and 9, FIGS. 6 to 10) by oral administration to a mouse:
For pharmacokinetic study, 6-7 week-old ICR mice were used in experiments. […] A vehicle or each of the compounds (50 mg/kg) were respectively orally administered to a mouse by a disposable sonde. Thirty minutes later, each mouse was decapitated for sampling their blood. Heparin sodium (10 μg/mL) was added to the blood as an anticoagulant. After each blood sample was centrifuged for 15 minutes (1,000 g, 4° C.), the supernatant was obtained as a blood plasma. Subsequently, to extract a compound, ethyl acetate was added to the obtained blood plasma, air-dried with nitrogen gas, and dissolved again with acetonitrile. The sample pretreated in this manner was subjected to the following analysis (HPLC, MS). In performing the HPLC analysis, constituents of the blood plasma were separated by the HPLC system (manufactured by JASCO Corporation) using a C18 reverse-phase column, at a flow rate of 1.0 mL/min. For analysis of the compound No. 1, a mobile phase consisting of acetonitrile (80%) and water (20%) was used, whereas a mobile phase consisting of acetonitrile (70%) and water (30%) was used for analysis of Compounds No. 2, No. 4 and No. 9. Individual compounds were detected by a UV detector at 295 nm. The data were obtained/analyzed by a software, ChromNAV (manufactured by JASCO Corporation). To identify an unchanged compound within the blood plasma constituents, the compound itself was directly analyzed as a standard substance by HPLC and the retention times of these compounds were compared. In the MS analysis, LC-MS/MS system (Agilent 1200 HPLC-Chip and 6520 Accurate-Mass Q-TOF), manufactured by Agilent Technologies, was used. The pretreated sample was allowed to adsorb onto a C18 chip by use of a mobile phase consisting of acetonitrile (25%) and water (75%) containing formic acid (0.1%), and thereafter, the blood plasma constituents were separated by a mobile phase consisting of acetonitrile (60%) and water (40%) containing formic acid (0.1%). The MS spectrum of the blood plasma constituents separated was detected (obtained) by a mass spectrometer, and data was obtained/analyzed by a software, MassHunter Qualitative Analysis (Agilent Technologies).

[4] = Solubility in lipid (choice of vehicle); assay type: physicochemical
[5] = system: epileptic seizures in hippocampal sclerosis model mouse; assay: Pharmacological effect evaluation using a hippocampal sclerosis model mouse; assay type: in vivo, ICR mice
Procedure: Pharmacological Effect Evaluation by Using a Hippocampal Sclerosis Model Mouse (Compound No. 2, FIG. 11):
Hippocampal sclerosis model mice for use in evaluating anti-epileptic action were prepared according to the literatures already published (Non-Patent Literatures 3 and 13). First, 6-7 week-old ICR mice were each anesthetized with a mixed solution of ketamine (100 mg/kg) and xylazine (40 mg/kg) and fixed to a stereotaxic apparatus. Subsequently, the scalp was removed and a U-shaped plastic frame required for recording electroencephalography in vivo was attached to the head. Then, a small amount of kainic acid (0.8 nmol, 40 nL) for inducing epilepsy was injected to the dorsal hippocampus (1.6 mm posterior to the bregma, 1.6 mm laterally from the center line, 1.4 mm (depth) from the brain surface) via a micro glass electrode and a metal electrode (diameter 200 μm) for measuring epileptic seizures was embedded in the proximity of the injection site of kainic acid. A reference electrode was installed in the cerebellum. Three weeks after the surgery, epileptic seizures spontaneously generated from the hippocampus were measured to evaluate anti-epilepsy action. Each mouse head was immobilized via a U-shaped frame, brain waves of the hippocampus was recorded through an analog filter of 0.5-30 Hz and digitized by an AD converter at a sampling rate of 1 kHz. After baseline brain wave was measured for one hour, a vehicle or Compound No. 2 was orally administered to each mouse by a disposable sonde, and their brain waves were recorded for further 3 hours. Epileptic seizures were analyzed by Igor Pro (WaveMetrics) and epileptic seizures lasting for 8 seconds or more were counted. Statistical analysis was carried out by SigmaPlot (Systat Software).

lactate dehydrogenase = settings: Non-Patent Literature 3; cited from earlier work

Compound	concentration at which inhibitory activity against LDHA was exerted ([1]; n=3) [µM]	inhibitory activity against LDHB (in words) [2]	unchanged compound in the blood after oral administration [3]	in vivo metabolic stability [3]	solubility in lipid [4]	inhibitory activity against LDHA (in words) ([1]; n=3, compared with compound No. 1 (5 μM))	epileptic seizure in the hippocampus ([5]; 150 mg/kg oral, 2.5 hours after administration, FIG. 11B)	number of seizures, dose dependency versus vehicle ([5]; dose of 50 mg/kg oral, 2-3 hours after administration, FIG. 11D, n=11)	number of spontaneous epileptic seizures per hour versus baseline ([5]; oral, one hour after the administration, FIG. 11C, n=10)	inhibitory action against lactate dehydrogenase (lactate dehydrogenase)
O=C(/C=C/c1ccc2c(c1)OCO2)c1ccc(-c2ccccc2)cc1 [Compound No. 1, reference compound]	5	almost the same strong inhibitory activity	quickly disappears	low	highly soluble in lipid	–	–	–	–	–
OC(/C=C/c1ccc2c(c1)OCO2)c1ccc(-c2ccccc2)cc1 (centres unmarked) [Compound No. 2]	–	almost the same strong inhibitory activity	maintained	high	highly soluble in lipid	exert an inhibitory activity at the same concentration	suppressed	significantly decreases	significant decrease	–
OC(/C=C/c1ccc2c(c1)OCO2)c1ccc(-c2ccc(F)cc2)cc1 (centres unmarked) [Compound No. 4]	–	–	maintained	high	highly soluble in lipid	–	–	–	–	–
OC(/C=C/c1ccc2c(c1)OCO2)c1ccc(-c2ccccc2)cc1F (centres unmarked) [Compound No. 9]	–	–	maintained	high	highly soluble in lipid	–	–	–	–	–
CC(C)(C)C(O)/C=C/c1ccc2c(c1)OCO2 (centres unmarked) [stiripentol]	–	–	–	–	–	–	–	–	–	weak
